These results are taken from US20150216898A1, “COMPOSITION FOR TREATING PSORIASIS” (PSORIASIS+CREAMS SWEDEN AB, priority 2012, published 2015).

This assay has as its system subjects suffering from psoriasis. As to the kind of experiment: Previous treatment(s) of the subjects (anamnesis). The format is in vivo, human. The following applies: Subject 4; previous treatment supplemented with moisturisers and emollients; responded well at first, more frequent relapses later. The source says: The subject had been diagnosed with psoriasis for nearly 25 years ago and had previously used combinations of local corticosteroids and emollient and moisturizing creams. Further, the subject had also tried photo therapy as well as a topical tar based product (Skillingarydsalvan Original). […] Further, the subject experienced side-effects (e g skin damage, such as skin thinning, changes in pigmentation, easy bruising, stretch marks, redness and dilated surface blood vessels) typically seen with treatment with corticosteroids.
Previous treatment(s): The subject had used corticosteroids such as mometasone furoate, prednicarbate and most recently calcitriol, always supplementing the treatment with moisturisers and emollients.
For `CCOC(=O)O[C@]1(C(=O)COC(=O)CC)CC[C@H]2[C@@H]3CCC4=CC(=O)C=C[C@]4(C)[C@H]3[C@@H](O)C[C@@]21C` [prednicarbate], the “effect of previous treatment over time” value is listed as “no longer as effective”.
Consider `C[C@@H]1C[C@H]2[C@@H]3CCC4=CC(=O)C=C[C@]4(C)[C@@]3(Cl)[C@@H](O)C[C@]2(C)[C@@]1(OC(=O)c1ccco1)C(=O)CCl` [mometasone furoate], for which the “effect of previous treatment over time” value was “no longer as effective”.
As for `C=C1/C(=C\C=C2/CCC[C@]3(C)[C@@H]([C@H](C)CCCC(C)(C)O)CC[C@@H]23)C[C@@H](O)C[C@@H]1O` [calcitriol], the “effect of previous treatment over time” value is given as “no longer as effective”.
